Experimental data reported in PubChem BioAssay AID1963433 (Molecular Pharmacology Branch, DTP, NCI, 2024).

System: 772245-204-R-J1-PDC complex spheroid growth
Test: Anticancer human tumor 772245-204-R-J1-PDC patient-derived rhabdomyosarcoma cell line growth inhibition [Asc]
Conditions: for IC50: curve of first compound; for viability, T/C: stronger effect = lower value
In short: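 Tumor cells were grown as complex spheroids with human endothelial cells (HUVEC) and human mesenchymal stem cells as stroma. Agents were tested alone and in combination, in half-log steps down from the clinical Cmax, or from 10 microM where Cmax was unknown.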

[1] = second compound 0.1 µM, first compound 0.00316 µM
[2] = second compound 0.1 µM, first compound 0.01 µM
[3] = second compound 0.1 µM, first compound 0.0316 µM
[4] = second compound 0.1 µM, first compound 0.1 µM
[5] = second compound 0.1 µM, first compound 0.316 µM
[6] = second compound 0.1 µM, first compound 1 µM
[7] = second compound 0.316 µM, first compound 0.00316 µM
[8] = second compound 0.316 µM, first compound 0.01 µM
[9] = second compound 0.316 µM, first compound 0.0316 µM
[10] = second compound 0.316 µM, first compound 0.1 µM
[11] = second compound 0.316 µM, first compound 0.316 µM
[12] = second compound 0.316 µM, first compound 1 µM
[13] = second compound 1 µM, first compound 0.00316 µM
[14] = second compound 1 µM, first compound 0.01 µM
[15] = second compound 1 µM, first compound 0.0316 µM
[16] = second compound 1 µM, first compound 0.1 µM
[17] = second compound 1 µM, first compound 0.316 µM
[18] = second compound 1 µM, first compound 1 µM
[19] = second compound 3.16 µM, first compound 0.00316 µM
[20] = second compound 3.16 µM, first compound 0.01 µM
[21] = second compound 3.16 µM, first compound 0.0316 µM
[22] = second compound 3.16 µM, first compound 0.1 µM
[23] = second compound 3.16 µM, first compound 0.316 µM
[24] = second compound 3.16 µM, first compound 1 µM
[25] = second compound 10 µM, first compound 0.00316 µM
[26] = second compound 10 µM, first compound 0.01 µM
[27] = second compound 10 µM, first compound 0.0316 µM
[28] = second compound 10 µM, first compound 0.1 µM
[29] = second compound 10 µM, first compound 0.316 µM
[30] = second compound 10 µM, first compound 1 µM
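Note: compound exposure lasted seven days.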
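Throughout, for viability, T/C: 100% = DMSO vehicle control viability.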

IC50 (second compound 0.1 µM)	IC50 (second compound 0.316 µM)	IC50 (second compound 1 µM)	IC50 (second compound 3.16 µM)	IC50 (second compound 10 µM)	SMILES	viability, T/C [1]	viability, T/C [2]	viability, T/C [3]	viability, T/C [4]	viability, T/C [5]	viability, T/C [6]	viability, T/C [7]	viability, T/C [8]	viability, T/C [9]	viability, T/C [10]	viability, T/C [11]	viability, T/C [12]	viability, T/C [13]	viability, T/C [14]	viability, T/C [15]	other results
> 1000 nM	436 nM	23.9 nM	< 3.16 nM	< 3.16 nM	CCN1CCN(Cc2ccc(Nc3ncc(F)c(-c4cc(F)c5nc(C)n(C(C)C)c5c4)n3)nc2)CC1 + Cc1c(S(C)(=O)=O)c(-c2cc(F)cc(N3CCN(c4ccc(NS(=O)(=O)c5ccc(NC(CCN6CCC(C(=O)OCCCP(=O)(O)O)CC6)CSc6ccccc6)c(S(=O)(=O)C(F)(F)F)c5)cc4)CC3)c2)c(-c2ccc(Cl)cc2)n1C(C)C	77.4%	78.2%	77.3%	82.1%	83.4%	74.7%	68.9%	58.1%	60.5%	58.5%	51.7%	45.5%	53.9%	52.9%	50%	viability, T/C [16]: 37.7%; viability, T/C [17]: 22.8%; viability, T/C [18]: 9.85%; viability, T/C [19]: 49%; viability, T/C [20]: 42.5%; viability, T/C [21]: 42%; viability, T/C [22]: 32.6%; viability, T/C [23]: 15.1%; viability, T/C [24]: 5.17%; viability, T/C [25]: 49.7%; viability, T/C [26]: 42.3%; viability, T/C [27]: 41%; viability, T/C [28]: 29.9%; viability, T/C [29]: 15.5%; viability, T/C [30]: 3.23%
57.5 nM	48.5 nM	21.2 nM	< 3.16 nM	< 3.16 nM	COc1c(OCCCN2CCOCC2)ccc2c3n(c(=NC(=O)c4cnc(N)nc4)nc12)CCN3 + Cc1c(S(C)(=O)=O)c(-c2cc(F)cc(N3CCN(c4ccc(NS(=O)(=O)c5ccc(NC(CCN6CCC(C(=O)OCCCP(=O)(O)O)CC6)CSc6ccccc6)c(S(=O)(=O)C(F)(F)F)c5)cc4)CC3)c2)c(-c2ccc(Cl)cc2)n1C(C)C	82.5%	73.1%	55.7%	45.2%	27.1%	18.8%	64.2%	74.5%	55.4%	36.8%	18.4%	11.6%	65.4%	59.9%	44.8%	viability, T/C [16]: 24.9%; viability, T/C [17]: 12.7%; viability, T/C [18]: 6.44%; viability, T/C [19]: 43.6%; viability, T/C [20]: 56.1%; viability, T/C [21]: 29.4%; viability, T/C [22]: 19.3%; viability, T/C [23]: 11.5%; viability, T/C [24]: 3.48%; viability, T/C [25]: 49.3%; viability, T/C [26]: 41.9%; viability, T/C [27]: 39.1%; viability, T/C [28]: 18.2%; viability, T/C [29]: 6.81%; viability, T/C [30]: 3.06%
